Data taken from US9072729B2, “Method for treating fibrosis and cancer with imidazolium and imidazolinium compounds” (Agency for Science, Technology and Research, priority 2008, dated 2015).

Tests used:
[1] = dosage of 30 mg/kg (Lin et al. 2004); cited from earlier work
HLE cells = assay: HLE cell proliferation assay (cell count, BrdU; HCS); assay type: cell-based, human; conditions: 0-1.25 mM, 48 h
Method: FIG. 21. DBZIM inhibited cell proliferation and disrupted cell cycle in HLE cells (A). DBZIM inhibited HCC cell proliferation. HLE cells were seeded at a density of 5000 cells/well in 96-well plate, and cultured for 18-24 h in 10% […] DMEM before the addition of various compounds (0-1.25 mM) in 10% FBS DMEM for 48 h of proliferation before assaying. Cell count was calculated based on Hoechst dye staining and BrdU incorporation was based on the total fluorescence intensity of antibody staining. (B). DBZIM arrested HCC cells at G0/G1 phase. HLE cells were incubated with DBZIM (0, 1, 3 mM) for 24 hr before fixation and DAPI staining for DNA content (2N vs. 4N) determination.
HLE cells were grown, treated by compounds in 6 replicates for 48 hr in a 96-well plate. Cells were then fixed by using 4% paraformaldehyde and stained by DAPI and BrdU antibody using Hitkit (Thermo Scientific, IL, USA). Cells were imaged and analyzed on ArrayScan VTI HCS reader (Thermal Scientific, PA, USA). Cell numbers were counted based on nuclear staining and BrdU incorporation was determined and expressed as percentage of positively stained cells.
The effect of DBZIM on the HCC cell proliferation and cell cycle was characterized on a high-content screening (HCS) platform. Under each concentration, at lease 1000 cells were analyzed. […]

[2] = tested on: Bcl-2 and IAP protein expression in HepG2 cells; assay: Western blot of Bcl-2 and IAP family proteins; assay type: cell-based, human; conditions: HepG2, 0-2.0 mM, 24 hr
Method: FIG. 24. DBZIM affected Bcl-2 and IAP protein expression. HepG2 cells were treated with DBZIM (0, 0.5, 1.0, 1.5 and 2.0 mM) for 24 hr. Total protein was collected using RIPA buffer. 15 μg of total protein was resolved in 4-12% gradient PAGE-SDS gel. The target proteins were recognized by respective antibodies, and visualized by the ECL method. The membrane was stripped and probed for the α-tubulin as the loading control.
Protein extracts were prepared by lysing cell pellet in RIPA buffer (Pierce, Ill., USA) for total protein extract, or in NE-PER reagent from Pierce (Pierce, Ill., USA) for nuclear and cytoplasmic fractions, or in a Kit from BioVision (CA, USA) for mitochondria and cytosol fractions. Protein content was quantified using BCA Kit (Pierce, Ill., USA). Fifteen micrograms of protein were resolved in 4-12% gradient SDS/polyacrylamide gel electrophoresis (PAGE) gel, and transferred to nitrocellular membrane. The membrane was then probed with primary antibodies against Bcl-XL, Bak, Bcl-2α, Bax (Lab Vision Corp., CA, USA), survivin, xIAP, cIAP (R&D systems Inc., MN, USA), c-Jun, c-Fos, JunB, JunD, Fra-1, Fra-2 (Santa Cruz Biotechnology, CA, USA) respectively, and detected by horseradish peroxidase-conjugated secondary antibody (Santa Cruz Biotechnology, CA, USA). Protein bands were recorded on X-ray film by reacting with ECL chemiluminescence reagents (Amersham Biosciences, NJ, USA). Alpha-tubulin (Abeam, UK) was used as the loading control for total protein, Tata binding protein (TBP) (Abeam, UK) was used as the loading control for nuclear protein, and Cox4 (Abcam, UK) was used as loading control for mitochondria protein.

phospho-Ser473-Akt = assay: Western blot of phosphorylated Akt; assay type: cell-based, human; conditions: H1299, MCF-7, AGS and MKN28, IC50 concentration, 24 h to 72 h
From the text: FIG. 32. DBZIM inhibits phosphorylation of Akt. […] Time course inhibition of phosphorylated-AKT was shown by Western blot. β-actin was used as an internal loading control.
The Akt (also known as protein kinase B) kinase signaling pathway is activated in a variety of carcinomas of lung, breast, colon, and pancreatic and other tumor types through over-expressing the Akt protein itself and/or increasing phosphorylation of Akt. This study provided evidence that DBZIM is particularly efficacious in inducing apoptosis in AGS, H1299 and MCF-7 cells through a mechanism involving the reduction in the levels of the, phospho-AKT.

Huh7 cells = assay: HCC xenograft model (Huh7 cells in Balb/c nude mice); assay type: in vivo, mouse; conditions: 2 grams/liter in drinking water, 3 weeks
Method: (§1) Balb/c Nude mice, 5-6 weeks old, were inoculated with 1×10^7 Huh7 cells in 0.2 ml volume of Matrigel/DMEM mix. Since not every mouse developed a tumor after the inoculation of HCC cells, only those with visible tumors (about 8 weeks after inoculation) were used for subsequent experiment. The tumor-bearing mice were randomly divided to the control and the treatment group. (n=3), respectively. Mice in the treatment group had free access to drinking water containing DBZIM (2 grams/liter) only, while mice in the control group had free access to Water only. The compound treatment lasted for 3 weeks. The tumor size was measured weekly, and the tumor volume was calculated using the formula: 0.52×width^2×length.
as §1, with “group” for “group.”, “compound 9 (IBN-9) at 0.6 g/l or 1.5 g/l” for “DBZIM (2 grams/liter)”, “water” for “Water”

[3] = Stability in drinking water by NMR analysis; assay type: physicochemical; conditions: room temperature

**Q.** With “(−)-Epigallocatechin gallate [EGCG, reference compound]” as the compound, how does the “half life in rat blood” value [1] read?
**A.** ~1.2 h

**Q.** With `[Br-].c1ccc(Cn2cc[n+](Cc3ccccc3)c2)cc1` [DBZIM, 1,3-bisbenzylimidazolium bromide] as the compound, how does the “HLE cell proliferation (total cell number, BrdU positive cells)” value (HLE cells) read?
**A.** inhibited the HLE cell proliferation

**Q.** And the Bak protein [2]?
**A.** up-regulated

**Q.** What about the “Bcl-2α and Bax proteins” value [2] of the same compound?
**A.** not affected

**Q.** And the Bcl-XL protein [2]?
**A.** slightly down-regulated

**Q.** And the survivin protein [2]?
**A.** significantly suppressed

**Q.** And the “xIAP and cIAP proteins” value [2]?
**A.** not affected

**Q.** What about the “active form of Akt (phospho-Ser473-Akt)” value (phospho-Ser473-Akt) of the same compound?
**A.** appreciable down-regulation

**Q.** And the “decrease of body weight” value (Huh7 cells)?
**A.** 17%

**Q.** What about the “reduction of tumor volume” value (Huh7 cells) of the same compound?
**A.** 40%

**Q.** With `CC(C)n1cc[n+](C(C)C)c1.F[B-](F)(F)F` [DPIM, 1,3-diisopropylimidazolium tetrafluoroborate] as the compound, how does the stability in water [3] read?
**A.** stable in water at room temperature condition for at least two weeks
